Data on three compounds can be found in patent publication US11771637B2, “Skin care composition and method of using the same” (The Procter & Gamble Company, priority 2021, dated 2023).

For the test, the system named is Antioxidant Response Element (ARE). In words: ARE Assay (ARE-32 luciferase reporter cell line). The test is classed as cell-based. From the text:
This method provides a way to quantitate ARE activation using the ARE-32 reporter cell line available from CXR Biosciences. The ARE-32 cell line is a stable MCF7 cell line containing pGL8x-ARE (8 copies of the rat GST ARE linked to the luciferase gene) and pCDNA3.1, which contains the neomycin selectable marker. A detailed description of the ARE-32 cell line and its development and use can be found in “Generation of a Stable Antioxidant Response Element-Driven Reporter Gene Cell Line and Its Use to Show Redox-Dependent Activation of Nrf2 by Cancer Chemotherapeutic Agents.” Cancer Res 2006; 66(22): 10983-94. A general schematic for how an ARE reporter assay operates to identify agents that promote transcription off the ARE is described in U.S. Publication No. 2011/0262570.
The ARE Assay uses expanded and cryopreserved passaged stocks. The cells are expanded over 4-5 days in culture flasks and passaged every 3-4 days, when cells are approximately 80% confluent. When cells are >70% confluent or ready to seed into 96 well plates, the cells are trypsinized, seeded and grown in 96-well plates. After growing for 1 day in 96-well plates, the media is replaced with fresh treatment media (phenol red free, no FBS) and cells are treated with compounds and incubated overnight (24 hours). Post treatment, cells are rinsed with 1×PBS, lysed and receive the luciferase kit reagent and luminescence is measured.
Frozen AREC32 cells (frozen in 90% FBS and 10% DMSO) are quickly thawed and placed in a 50 ml conical tube with 25 ml plating media. Centrifuge at 1500-2000 RPM for 5 minutes. Remove media without disturbing cell pellet. Re-suspend cells in 12 ml media and add to T-75 tissue culture flask. Cells should be at >80% confluency in 4-5 days and can be split 1:3 into T-150 flasks to grow cells for seeding plates if more cells are needed.
Cells are maintained and plated in 96-well plates with plating media. Subculture (passage cells) every 3-4 days or when ˜75-80% confluent. To passage cells, aspirate media from flask and add 6 ml 0.25% trypsin. Tilt flask in all directions to distribute the trypsin over the bottom of the flask and place in incubator. After 2-3 minutes observe cells under microscope to see if detached. If cells have not detached completely place in incubator for an additional 2-3 minutes. Once detached, add 6 ml maintenance media to neutralize trypsin and pipet into centrifuge tube. Centrifuge at 1200 RPM for 5 minutes. Remove media without disturbing cell pellet. Re-suspend pellet in 12 ml maintenance media and add to flask. If splitting or detaching cells from a T-150 flask double all volumes and follow same procedures.
Aspirate media from flask and add appropriate volume of 0.25% trypsin depending on size of flask (6 ml for T-75 and 12 ml for T-150 flask). Swirl flask to distribute trypsin on bottom of flask and return to incubator for 2-3 minutes. Observe cells under microscope. If cells have not detached completely place in incubator for an additional 2-3 minutes. Once cells are detached add DMEM equal to the volume of trypsin, mix gently and place in centrifuge tube. Centrifuge at […] for 5 minutes. Aspirate media without disturbing cell pellet. Re-suspend pellet in 10 ml DMEM. Dilute the cells 1:5 using 50 μl cells+200 μl DMEM. Use 20 μl of this dilution and 20 μl 0.4% trypan blue. Mix and add 10 μl/chamber to disposable hemocytometer and insert into Countess II Instrument. Non-viable cells will be blue, viable cells will be unstained. Cell seeding density may vary from ˜10,000 cells/well or more depending on cell passage growth. Cell density should be approx. 70-80% on day of treatment/dosing. […] Media must be free of phenol red.
Tert-Butylhydroquinone (tBHQ) (Aldrich, Cat #11,294-1). Prepare 100 mM stock (1M=166.21 mg/ml; 100 mM=16.62 mg/ml). Dilute to 750 μM (1:133) using 30 μl of 100 mM tBHQ and […] treatment media. 2 μl of positive control should yield a final concentration of 7.5 μM in the test well. […]
On the technique in general: A reporter such as luciferase makes a cellular process visible.

Where “and” joins values, the source holds several entries; their conditions need not be identical. Equal entries are not always repeated. No end group written: not given here. *: point of attachment. Palmitoyl = CCCCCCCCCCCCCCCC(=O)*

Consider `NC(=O)c1cccnc1` [N, niacinamide, reference compound], for which the “Average Net Luminescence N” value came out at 8 (N 1 ppm alone); 12 (N 10 ppm alone); 45 (N 50 ppm alone); 53 (N 500 ppm alone); 45 (Table 3, N 500 ppm alone).

With acetyl tetrapeptide-11 (Ac-PPYL), the “Average Net Luminescence Ac-PPYL” value was 12 and 19.4 and 20 (Ac-PPYL 0.05 ppm alone); 22 and 15.7 (Ac-PPYL 0.1 ppm alone); 14.7 and 26 (Ac-PPYL 0.5 ppm alone); 56 and 51 (Ac-PPYL 1 ppm alone); 64 and 61 (Ac-PPYL 2 ppm alone); 57 (Table 3, Ac-ppyl 2 ppm alone).

Turning to “palmitoyl pentapeptide-4 (Palmitoyl-KTTKS) [Pal-KTTKS]”, the “Average Net Luminescence Pal-kttks” value runs as follows: (Pal-KTTKS 1 ppm alone) 24.3; (Table 3, Pal-kttks 1 ppm alone) 21.
